Assay results: ChEMBL document CHEMBL1201862, “PubChem BioAssay data set” (2004)
The source made the active and inactive calls.

What was measured:
HEK293 = assay: HEK293T cell viability loss, resazurin readout – resazurin fluorescence, cytotoxicity control for NF-kB activator project, SAR follow-up (AID 493251); assay type: functional, cell-based; settings: Homo sapiens
[1] = Luminescence Cell-Based Dose Response HTS to Identify Inhibitors of 5'UTR Stem-Loop Driven Prion Protein mRNA Translation in H4 Neuroglioblastoma Cells. [Related pubchem assays: 1827 (Project Summary), 1813 (Primary HTS)]; assay type: functional
[2] = biological target: T1, E3 ubiquitin-protein ligase XIAP (Homo sapiens, UniProt P98170); assay: small molecules displacing peptide from XIAP – biochemical, IAP family, fluorescence polarization (AID 1018); assay type: functional
[3] = luciferase reporter signal suppression in cells – H4 neuroglioma cells, luminescence, dose response (AID 1990); assay type: functional, cell-based
[4] = HEK-293T cell viability reduction – luminescence, B-cell screen hits, cytotoxicity control for BCR NF-kB inhibitor project, dose response (AID 489021); assay type: functional, cell-based;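 note: HEK-293T cells carrying an NF-kB luciferase reporter; cells exposed to compound for about 14 hours before viability readout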
[5] = biological target: T2, Microphthalmia-associated transcription factor (Homo sapiens, UniProt O75030); assay: reducers of TRPM1 reporter luminescence, concentration series – cell-based, SK-MEL-5, cherry-picked, set 3, MITF inhibitor project, dose response (AID 493073); assay type: functional;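 note: SK-MEL-5 melanoma cells with luciferase driven by the MITF target TRPM1 promoter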
T2 sequence (O75030 whole entry): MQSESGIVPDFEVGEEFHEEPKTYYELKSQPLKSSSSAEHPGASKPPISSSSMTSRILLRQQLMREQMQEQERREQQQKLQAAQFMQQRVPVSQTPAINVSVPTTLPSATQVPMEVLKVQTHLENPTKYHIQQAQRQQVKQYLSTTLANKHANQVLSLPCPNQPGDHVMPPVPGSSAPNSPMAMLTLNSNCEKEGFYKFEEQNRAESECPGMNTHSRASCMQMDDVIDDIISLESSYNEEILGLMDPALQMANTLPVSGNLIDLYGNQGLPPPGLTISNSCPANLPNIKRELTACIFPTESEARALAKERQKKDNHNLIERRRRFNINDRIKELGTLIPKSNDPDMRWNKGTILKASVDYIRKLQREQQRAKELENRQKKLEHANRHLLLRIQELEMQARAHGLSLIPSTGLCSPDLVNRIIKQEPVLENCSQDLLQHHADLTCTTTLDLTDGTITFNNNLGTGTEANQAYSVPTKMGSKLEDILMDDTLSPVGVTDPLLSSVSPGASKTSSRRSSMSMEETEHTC

[6] = biological target: T1, E3 ubiquitin-protein ligase XIAP; assay: Counter Screen using XIAP-Bir3 for Chemical Antagonists of Bir1/2 domains of IAP-family anti-apoptotic proteins. [Related pubchem assays (depositor defined):AID1018, AID1449, AID1514, AID1638, AID1749, AID1750, AID488957, AID488963]
[7] = alpha-synuclein stem-loop luciferase translation blockers – H4 neuroglioma cells, luminescence, confirmation (AID 1988); assay type: functional, cell-based
Phospholipase A2 = Phospholipase A2 (Homo sapiens, UniProt P04054); assay type: functional;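 note: confirmatory dose-response counterscreen on phospholipase A2, testing hits that came from an ultra-high-throughput screen for ATG4B inhibitors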
Cysteine protease ATG4B = Cysteine protease ATG4B (Homo sapiens, UniProt Q9Y4P1); assay type: functional;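 note: Fluorescence-based dose-response confirmation assay measuring inhibition of ATG4B activity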
Troponin, cardiac muscle = Troponin, cardiac muscle (Homo sapiens, UniProt P19429+P45379+P63316); assay: Fluorescence-based biochemical high throughput dose response assay for activators of the calcium sensitivity of cardiac Regulated Thin Filaments (RTF). [Related pubchem assays (depositor defined):AID493008, AID493018, AID504382, AID504383]; assay type: protein-complex assay
CHO = CHO cell viability loss, potency – luminescence, cytotoxicity control for TLR9-MyD88 binding inhibitor project, dose response (AID 588339); assay type: functional, cell-based, hamster; settings: Cricetulus griseus;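 note: CHO cells stably coexpressing TLR9 and MyD88 fusions from primary screen; compound exposure lasted 48 hours before viability readout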
[8] = biological target: Heat shock protein HSP 90-alpha (Homo sapiens, UniProt P07900); assay type: functional, organism-based
[9] = biological target: Photoreceptor-specific nuclear receptor (Homo sapiens, UniProt Q9Y5X4); assay type: functional, cell-based;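 note: CHO-S cells with Gal4-NCOR and VP16-NR2E3 two-hybrid luciferase reporter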
Beta Lactamase = Beta Lactamase (Pseudomonas aeruginosa, UniProt Q932Y6); assay: BLA reporter interference, concentration series – BLA reporter cells, FRET fluorescence, artefact control for TLR9-MyD88 binding inhibitor project, dose response (AID 588341); assay type: cell-based;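 note: cell based assay in CHO-K1 cells stably expressing beta-lactamase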
Chain of Beta Lactamase (Q932Y6 whole entry): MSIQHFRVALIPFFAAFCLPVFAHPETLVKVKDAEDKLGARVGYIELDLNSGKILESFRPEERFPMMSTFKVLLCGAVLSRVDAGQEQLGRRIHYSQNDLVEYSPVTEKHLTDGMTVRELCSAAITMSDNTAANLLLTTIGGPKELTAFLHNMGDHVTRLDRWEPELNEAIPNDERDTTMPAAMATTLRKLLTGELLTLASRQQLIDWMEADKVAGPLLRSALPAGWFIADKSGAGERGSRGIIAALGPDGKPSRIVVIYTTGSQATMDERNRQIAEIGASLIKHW

T1 sequence (P98170 whole entry): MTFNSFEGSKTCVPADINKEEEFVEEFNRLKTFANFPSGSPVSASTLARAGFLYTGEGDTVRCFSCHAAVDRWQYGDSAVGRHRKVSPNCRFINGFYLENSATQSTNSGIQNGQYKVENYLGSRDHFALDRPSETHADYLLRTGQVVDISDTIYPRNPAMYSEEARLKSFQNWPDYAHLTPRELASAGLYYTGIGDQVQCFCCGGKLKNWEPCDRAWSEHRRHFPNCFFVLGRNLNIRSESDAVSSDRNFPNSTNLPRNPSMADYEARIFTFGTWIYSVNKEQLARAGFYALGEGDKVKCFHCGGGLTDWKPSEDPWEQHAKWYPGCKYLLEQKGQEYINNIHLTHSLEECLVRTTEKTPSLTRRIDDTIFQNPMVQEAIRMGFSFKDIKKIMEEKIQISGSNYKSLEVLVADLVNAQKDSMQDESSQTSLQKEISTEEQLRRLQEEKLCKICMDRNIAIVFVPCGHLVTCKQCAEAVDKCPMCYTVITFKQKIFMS
Chain of Phospholipase A2 (P04054 whole entry): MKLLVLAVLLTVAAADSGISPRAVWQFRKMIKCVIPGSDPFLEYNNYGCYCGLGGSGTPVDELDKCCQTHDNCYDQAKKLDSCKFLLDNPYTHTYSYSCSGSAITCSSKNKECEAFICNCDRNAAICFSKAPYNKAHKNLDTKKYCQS
Chain of Cysteine protease ATG4B (Q9Y4P1 whole entry): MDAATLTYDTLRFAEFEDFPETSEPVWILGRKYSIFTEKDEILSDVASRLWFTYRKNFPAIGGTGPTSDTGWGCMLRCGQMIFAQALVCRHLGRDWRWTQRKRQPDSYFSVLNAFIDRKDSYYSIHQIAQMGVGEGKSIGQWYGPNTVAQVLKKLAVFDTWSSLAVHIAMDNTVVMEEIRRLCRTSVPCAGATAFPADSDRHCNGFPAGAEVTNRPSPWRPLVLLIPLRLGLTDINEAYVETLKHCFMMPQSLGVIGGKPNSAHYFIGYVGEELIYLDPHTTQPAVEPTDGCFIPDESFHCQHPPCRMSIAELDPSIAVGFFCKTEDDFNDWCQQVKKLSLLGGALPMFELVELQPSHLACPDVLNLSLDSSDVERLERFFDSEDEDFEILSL
Chain of Photoreceptor-specific nuclear receptor (Q9Y5X4 whole entry, the tested form may be a part): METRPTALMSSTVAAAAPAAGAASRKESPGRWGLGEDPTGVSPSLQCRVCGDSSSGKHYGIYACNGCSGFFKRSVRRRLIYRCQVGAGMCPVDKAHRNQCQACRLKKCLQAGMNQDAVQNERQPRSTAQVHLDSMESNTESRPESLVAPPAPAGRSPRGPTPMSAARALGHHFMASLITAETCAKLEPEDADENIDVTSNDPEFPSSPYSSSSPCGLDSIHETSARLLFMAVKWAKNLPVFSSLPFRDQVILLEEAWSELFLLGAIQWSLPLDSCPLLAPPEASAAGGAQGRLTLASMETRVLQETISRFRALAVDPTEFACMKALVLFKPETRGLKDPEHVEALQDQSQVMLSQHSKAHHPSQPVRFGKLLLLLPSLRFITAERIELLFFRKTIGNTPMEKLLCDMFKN

**Q.** Which IC50 (HEK293) does the source give for `CCOc1ccc(-c2noc(CCC(=O)O)n2)cc1` here?
**A.** > 80 µM (inactive)

**Q.** What about the EC50 [1] of the same molecule?
**A.** 15 µM (active)

**Q.** And the IC50 [2]?
**A.** > 100 µM (not active)

**Q.** What about the EC50 [3] of the same molecule?
**A.** 6.28 µM (active)

**Q.** What about the IC50 [4] of the same molecule?
**A.** > 80 µM (inactive)

**Q.** What about the AC50 [5] of the same molecule?
**A.** 2.61 µM (active)

**Q.** And the IC50 [6]?
**A.** > 100 µM (inactive)

**Q.** What about the EC50 [7] of the same molecule?
**A.** 7.97 µM (active)

**Q.** For `Fc1ccc(CN=C(S)NCc2ccc(F)cc2)cc1`, which IC50 (Phospholipase A2) is on record?
**A.** 9.33 µM (active)

**Q.** What about the IC50 (Cysteine protease ATG4B) of the same molecule?
**A.** 12.3 µM (active)

**Q.** And the EC50 (Troponin, cardiac muscle)?
**A.** > 71.5 µM (inactive)

**Q.** What does the source list for `Cc1sc(NC(=O)c2ccccc2)c(C(=O)c2ccccc2)c1C`?
**A.** IC50 (Phospholipase A2): 9.18 µM (active); IC50 (Cysteine protease ATG4B): 15.3 µM (active)

**Q.** What does the source list for `O=c1c(Br)ccc(Br)cc1Br`?
**A.** IC50 (CHO): 0.558 µM (active); AC50 [8]: 0.438 µM (active); IC50 [9]: 3.72 µM (active); IC50 (Beta Lactamase): 6.14 µM (active)
